# Patent publication US10829520B2, “Beta-hairpin peptidomimetics” (POLYPHOR AG, priority 2015, dated 2020)
# *1 amine or outer side, *2 acyl side, *3 side chain or, on linkers, in order; H or OH if unused. Where a SMILES comes first, the peptide text is derived from it. Bridges are numbered along the chain shown (N, C = ends). Roman numbers before positions name the chains, in order. [ ]: non-standard residue; d: D form. X3 = CNCC[C@H](N[*:1])C(=O)[*:2]; Tle = CC(C)(C)[C@H](N)C(=O)O; dDab = NCC[C@@H](N)C(=O)O; Nle = CCCC[C@H](N)C(=O)O; Orn = NCCC[C@H](N)C(=O)O; Dab = NCC[C@H](N)C(=O)O; dAze = O=C(O)[C@H]1CCN1; Dap = NC[C@H](N)C(=O)O
# Legend:
# Assay type in all cases: cell-based
# [1] = system: Acinetobacter baumannii DSM 30008; details: DSM 30008
# Procedure: (§1) Lyophilized peptides were weighed on a Microbalance (Mettler MT5) and dissolved in sterile water to a final concentration of 1 mg/mL. Stock solutions were kept at +4° C., light protected.
# (§2) The in vitro antimicrobial activities of the peptides were determined in 96-well plates (Greiner, polystyrene) by the standard CLSI broth microdilution method (Clinical and Laboratory Standards Institute 2014. Performance standards for antimicrobial susceptibility testing, 24th informational supplement. Approved standard CLSI M100-S24; Clinical and Laboratory Standards Institute, Wayne, Pa.). Inocula of the microorganisms were diluted into Mueller-Hinton II (MH-cation adjusted) broth and compared with a 0.5 McFarland standard to give appr. 10^6 colony forming units (CFU)/mL. Aliquots (90 μL) of inoculate were added to 10 μL of MH-II broth+P-80 (Polysorbate 80, 0.002% final concentration, v/v) containing the peptide in serial two-fold dilutions. The following microorganisms were used to determine antibiotic activity of the peptides: Escherichia coli ATCC 25922, Klebsiella pneumoniae SSI #3010^a), Acinetobacter baumannii DSM 30008, Pseudomonas aeruginosa ATCC 27853 and the clinical isolates Escherichia coli 926415^b), Klebsiella pneumoniae 968733^b) and Acinetobacter baumannii 872842^b). Antimicrobial activities of the peptides were expressed as the minimal inhibitory concentration (MIC) in μg/mL at which no visible growth was observed after 18-20 hours of incubation at 35° C. ^a) Obtained from Statens Serum Institut (SSI), Copenhagen, Denmark^b) Obtained from International Health Management Associates, Inc. (IHMA Europe Sàrl), Epalinges, Switzerland
# [2] = system: Escherichia coli ATCC 25922; details: ATCC 25922
# Procedure: as §1, §2
# [3] = system: Klebsiella pneumoniae SSI #3010; details: SSI #3010
# Procedure: as §1, §2
# [4] = system: Pseudomonas aeruginosa ATCC 27853; details: ATCC 27853
# Procedure: as §1, §2
# [5] = system: human red blood cells (hRBC); test: Hemolysis of human red blood cells; details: red cells of human, 1 h
# Procedure: as §1
# The peptides were tested for their hemolytic activity against human red blood cells (hRBC). Fresh hRBC were washed three times with phosphate buffered saline (PBS) and centrifuged for 10 min at 2000×g. Compounds (100 μg/mL) were incubated with 20% hRBC (v/v) for 1 h at 37° C. and shaking at 300 rpm. The final erythrocyte concentration was approximately 0.9×10^9 cells/mL. A value of 0% and 100% cell lyses, respectively, was determined by incubation of hRBC in the presence of PBS containing 0.001% acetic acid and 2.5% Triton X-100 in H2O, respectively. The samples were centrifuged, the supernatants were 8-fold diluted in PBS buffer and the optical densities (OD) were measured at 540 nm. The 100% lyses value (OD540H2O) gave an OD540 of approximately 0.5-1.0.
# Percent hemolysis was calculated as follows: (OD540peptide/OD540H2O)×100%.
SMILES,Acinetobacter baumannii DSM 30008 MIC [1],Escherichia coli ATCC 25922 MIC [2],Klebsiella pneumoniae SSI #3010 MIC [3],Pseudomonas aeruginosa ATCC 27853 MIC [4],Hemolysis at 100 μg/mL [5]; 100,Hemolysis at 100 μg/mL ([5]; 100 μg/mL)
CCCC[C@@H]1NC(=O)[C@@H]2CCCN2C(=O)[C@H]2CCCN2C(=O)[C@H](CO)NC(=O)[C@H](C)NC(=O)[C@H](C(C)(C)C)NC(=O)[C@H](CCC(=O)N[C@@H](CCN)C(=O)N[C@H](C(=O)N[C@@H](CCN)C(=O)N[C@H]2CCNC(=O)[C@H]([C@@H](C)O)NC(=O)[C@H](CCN)NC(=O)[C@H](CCN)NC(=O)[C@H](CC(C)C)NC(=O)[C@@H](Cc3ccccc3)NC(=O)[C@H](CCN)NC2=O)[C@@H](C)O)NC(=O)[C@H](Cc2c[nH]c3ccccc23)NC(=O)[C@H](CCN)NC(=O)[C@@H](CCN)NC(=O)[C@H](CCCN)NC(=O)[C@H](CCN)NC(=O)[C@H](Cc2ccc(O)cc2)NC(=O)[C@H](CO)NC1=O [Ex. 11] (I: cyclo(WE[Tle]AS[dP]P[Nle]SY[Dab][Orn][dDab][Dab]) / II: [Dab]T[Dab][Dab][Dab][dF]L[Dab][Dab]T; amide I:2-II:N; lactam II:4-II:C),1 µg/mL,2 µg/mL,1 µg/mL,0.5 µg/mL,1%,–
CCCC[C@@H]1NC(=O)[C@@H]2CCCN2C(=O)[C@H]2CCCN2C(=O)[C@H](CO)NC(=O)[C@H](C)NC(=O)[C@H](C(C)(C)C)NC(=O)[C@@H](NC(=O)[C@H](Cc2c[nH]c3ccccc23)NC(C)=O)CSSC[C@@H](C(=O)N[C@@H](CNC(=O)[C@@H](N)CCC(=O)O)C(=O)N[C@H](C(=O)N[C@@H](CCN)C(=O)N[C@H]2CCNC(=O)[C@H]([C@@H](C)O)NC(=O)[C@H](CCN)NC(=O)[C@H](CCN)NC(=O)[C@H](CC(C)C)NC(=O)[C@@H](Cc3ccccc3)NC(=O)[C@H](CCN)NC2=O)[C@@H](C)O)NC(=O)[C@H](Cc2ccc(O)cc2)NC(=O)[C@H](CO)NC1=O [Ex. 24] (Ac-WC[Tle]AS[dP]P[Nle]SYC[Dap](Glu)T[Dab][Dab][Dab][dF]L[Dab][Dab]T; disulfide 2-11; lactam 15-C),2 µg/mL,2 µg/mL,4 µg/mL,4 µg/mL,–,1%
CCCC[C@@H]1NC(=O)[C@@H]2CCCN2C(=O)[C@H]2CCCN2C(=O)[C@H](CO)NC(=O)[C@H](C)NC(=O)[C@H](C(C)C)NC(=O)[C@@H](NC(=O)[C@H](Cc2c[nH]c3ccccc23)NC(C)=O)CSSC[C@@H](C(=O)N[C@@H](CCCN)C(=O)N[C@@H](CCN)C(=O)N[C@H]2CCNC(=O)[C@H]([C@@H](C)O)NC(=O)[C@H](CCN)NC(=O)[C@H](CCN)NC(=O)[C@H](CC(C)C)NC(=O)[C@@H](Cc3ccccc3)NC(=O)[C@H](CCN)NC2=O)NC(=O)[C@H](Cc2ccc(O)cc2)NC(=O)[C@H](CO)NC1=O [Ex. 55] (Ac-WCVAS[dP]P[Nle]SYC[Orn][Dab][Dab][Dab][dF]L[Dab][Dab]T; disulfide 2-11; lactam 14-C),1 µg/mL,0.5 µg/mL,1 µg/mL,2 µg/mL,–,1%
"CCCC[C@@H]1NC(=O)[C@@H]2CCCN2C(=O)[C@H]2CCCN2C(=O)[C@H](CO)NC(=O)[C@H](C)NC(=O)[C@H](C(C)(C)C)NC(=O)[C@@H](NC(=O)[C@H](Cc2c[nH]c3ccccc23)NC(C)=O)CC(=O)NCC[C@@H](C(=O)N[C@@H](CCCN)C(=O)N[C@@H](CCN)C(=O)N[C@H]2CCNC(=O)[C@H]([C@@H](C)O)NC(=O)[C@H](CCN)NC(=O)[C@H](CCN)NC(=O)[C@H](CC(C)C)NC(=O)[C@@H](Cc3ccccc3)NC(=O)[C@H](CCN)NC2=O)NC(=O)[C@H](Cc2ccc(O)cc2)NC(=O)[C@H](CO)NC1=O [Ex. 56] (Ac-WD[Tle]AS[dP]P[Nle]SY[Dab][Orn][Dab][Dab][Dab][dF]L[Dab][Dab]T; lactam 2-11, 14-C)",2 µg/mL,0.5 µg/mL,4 µg/mL,4 µg/mL,<1%,–
CCCC[C@@H]1NC(=O)[C@@H]2CCCN2C(=O)[C@H]2CCCN2C(=O)[C@H](CO)NC(=O)[C@H](C)NC(=O)[C@H](C(C)(C)C)NC(=O)[C@H](CCN)NC(=O)[C@H](Cc2c[nH]c3ccccc23)NC(=O)[C@H](CCN)NC(=O)[C@@H](CCN)NC(=O)[C@H](CC(=O)N[C@H]2CCNC(=O)[C@H]([C@@H](C)O)NC(=O)[C@H](CCN)NC(=O)[C@H](CCN)NC(=O)[C@H](CC(C)C)NC(=O)[C@@H](Cc3ccccc3)NC(=O)[C@H](CCN)NC2=O)NC(=O)[C@H](CCN)NC(=O)[C@H](Cc2ccc(O)cc2)NC(=O)[C@H](CO)NC1=O [Ex. 64] (I: cyclo([Nle]SY[Dab]D[dDab][Dab]W[Dab][Tle]AS[dP]P) / II: [Dab][Dab][dF]L[Dab][Dab]T; amide I:5-II:N; lactam II:1-II:C),1 µg/mL,2 µg/mL,2 µg/mL,4 µg/mL,<1%,–
CCCC[C@@H]1NC(=O)[C@@H]2CCCN2C(=O)[C@H]2CCCN2C(=O)[C@H](CO)NC(=O)[C@H](C)NC(=O)[C@H](C(C)(C)C)NC(=O)[C@H](CCN)NC(=O)[C@H](Cc2c[nH]c3ccccc23)NC(=O)[C@H](CCN)NC(=O)[C@@H](CCN)NC(=O)[C@H](CCC(=O)N[C@@H](CCNC)C(=O)N[C@H]2CCNC(=O)[C@H]([C@@H](C)O)NC(=O)[C@H](CCN)NC(=O)[C@H](CCN)NC(=O)[C@H](CC(C)C)NC(=O)[C@@H](Cc3ccccc3)NC(=O)[C@H](CCN)NC2=O)NC(=O)[C@H](CCN)NC(=O)[C@H](Cc2ccc(O)cc2)NC(=O)[C@H](CO)NC1=O [Ex. 68] (I: cyclo(W[Dab][Tle]AS[dP]P[Nle]SY[Dab]E[dDab][Dab]) / II: [X3][Dab][Dab][dF]L[Dab][Dab]T; amide I:12-II:N; lactam II:2-II:C),2 µg/mL,2 µg/mL,2 µg/mL,0.5 µg/mL,<1%,–
CC(C)C[C@@H]1NC(=O)[C@H](CCCNC(=N)N)NC(=O)[C@@H](CCN)NC(=O)[C@H](C(C)C)NC(=O)[C@H](C)NC(=O)[C@H](Cc2ccc(O)cc2)NC(=O)[C@H](CCN)NC(=O)[C@H](Cc2c[nH]c3ccccc23)NC(=O)[C@H](CCN)NC(=O)[C@@H](CCN)NC(=O)[C@H](CCC(=O)N[C@@H](CCN)C(=O)N[C@H](C(=O)N[C@@H](CCN)C(=O)N[C@H]2CCNC(=O)[C@H]([C@@H](C)O)NC(=O)[C@H](CCN)NC(=O)[C@H](CCN)NC(=O)[C@H](CC(C)C)NC(=O)[C@@H](CC(C)C)NC(=O)[C@H](CCN)NC2=O)[C@@H](C)O)NC(=O)[C@H](CCN)NC(=O)[C@H](Cc2ccc(O)cc2)NC(=O)[C@H](CO)NC1=O [Ex. 97] (I: cyclo(AV[dDab]RLSY[Dab]E[dDab][Dab]W[Dab]Y) / II: [Dab]T[Dab][Dab][Dab][dL]L[Dab][Dab]T; amide I:9-II:N; lactam II:4-II:C),2 µg/mL,0.5 µg/mL,0.5 µg/mL,0.5 µg/mL,1%,–
CC(C)C[C@@H]1NC(=O)[C@@H](CC(C)C)NC(=O)[C@H](CCN)NC(=O)[C@@H](NC(=O)[C@H](CCN)NC(=O)[C@@H](NC(=O)[C@H](CCN)NC(=O)CC[C@@H]2NC(=O)[C@H](CCN)NC(=O)[C@H](Cc3ccc(O)cc3)NC(=O)[C@H]([C@@H](C)O)NC(=O)[C@H](C(C)C)NC(=O)[C@@H]3CCCN3C(=O)[C@H]3CCN3C(=O)[C@H](CO)NC(=O)[C@H](C)NC(=O)[C@H](C(C)(C)C)NC(=O)[C@H](CCN)NC(=O)[C@H](Cc3c[nH]c4ccccc34)NC(=O)[C@H](CCN)NC(=O)[C@@H](CCN)NC2=O)[C@@H](C)O)CCNC(=O)[C@H]([C@@H](C)O)NC(=O)[C@H](CCN)NC(=O)[C@H](CCN)NC1=O [Ex. 101] (I: cyclo(AS[dAze]PVTY[Dab]E[dDab][Dab]W[Dab][Tle]) / II: [Dab]T[Dab][Dab][Dab][dL]L[Dab][Dab]T; amide I:9-II:N; lactam II:4-II:C),2 µg/mL,1 µg/mL,1 µg/mL,0.25 µg/mL,4%,–
